# From patent US9169209B2, “Compounds and compositions for the inhibition of NAMPT” (FORMA TM, LLC, priority 2011, dated 2015)
# Columns and labels:
# [1] = tested on: A2780 cells; experiment: In-Vitro Cell Proliferation Assay (SRB, 72 hours); format: cell-based; details: Homo sapiens, A2780, 72 h, A2780 cells, 72 hours, sulforhodamine B; read-out: A2780 IC50
# Outline: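 Plated cells exposed to serially diluted compound (0.1% DMSO final) for 72 h at 37 °C, 5% CO2. Viability by SRB staining after TCA fixation, absorbance 570 nm, media-only background subtracted; % inhibition relative to DMSO-treated cells, interpolated between bracketing concentrations.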
# [2] = target: NAMPT (Homo sapiens (Human), UniProt P43490); experiment: Biochemical Inhibition Assay (NAMPT enzymatic reaction, NMN quantified by mass spectrometry); details: recombinant His-tagged NAMPT, 33 nM; 1 μM NAM; read-out: Biochem IC50
# Chain of NAMPT (P43490 whole entry): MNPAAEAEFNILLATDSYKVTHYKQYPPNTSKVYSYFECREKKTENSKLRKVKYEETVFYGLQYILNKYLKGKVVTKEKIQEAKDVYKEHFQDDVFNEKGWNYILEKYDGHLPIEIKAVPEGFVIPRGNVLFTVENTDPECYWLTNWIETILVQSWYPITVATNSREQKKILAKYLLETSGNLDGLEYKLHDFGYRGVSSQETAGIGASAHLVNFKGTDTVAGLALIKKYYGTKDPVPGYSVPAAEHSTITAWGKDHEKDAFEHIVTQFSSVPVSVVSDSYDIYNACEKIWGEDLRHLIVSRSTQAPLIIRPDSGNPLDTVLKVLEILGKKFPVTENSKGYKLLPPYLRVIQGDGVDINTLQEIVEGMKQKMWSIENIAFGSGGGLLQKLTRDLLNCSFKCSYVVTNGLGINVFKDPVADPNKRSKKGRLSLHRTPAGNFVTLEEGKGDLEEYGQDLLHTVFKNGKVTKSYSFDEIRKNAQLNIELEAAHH
# Outline: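 His-tagged human NAMPT from E. coli was preincubated 15 min at RT with compound in Hepes pH 7.5/MgCl2 buffer. Reaction ran 30 min at RT with 1 μM NAM, 100 μM PRPP and 2.5 mM ATP, then was quenched with formic acid. NMN was measured by RapidFire MS, normalized to L-cystathionine, and IC50 derived from % inhibition.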
Compound,IC50 [1] [nM],IC50 [2] [nM]
O=C(Nc1ccc(S(=O)(=O)c2ccccc2)cc1)/C(F)=C/c1cccnc1 [(2Z)-N-[4-(benzenesulfonyl)phenyl]-2-fluoro-3-(pyridin-3-yl)prop-2-enamide],347,7
CC(C)CNC(=O)c1cccc(S(=O)(=O)c2ccc(NC(=O)/C=C/c3cccnc3)cc2)c1 [N-(2-methylpropyl)-3-({4-[(2E)-3-(pyridin-3-yl)prop-2-enamido]benzene}sulfonyl)benzamide],100 to 1000,21.3
CC(C)NC(=O)c1cccc(S(=O)(=O)c2ccc(NC(=O)/C=C/c3cccnc3)cc2)c1 [N-(propan-2-yl)-3-({4-[(2E)-3-(pyridin-3-yl)prop-2-enamido]benzene}sulfonyl)benzamide],100 to 1000,17.6
O=C(/C=C/c1cccnc1)Nc1ccc(S(=O)(=O)c2cccc(C(=O)NC3CCCC3)c2)cc1 [N-cyclopentyl-3-({4-[(2E)-3-(pyridin-3-yl)prop-2-enamido]benzene}sulfonyl)benzamide],100 to 1000,16.1
CCNC(=O)c1cccc(S(=O)(=O)c2ccc(NC(=O)/C=C/c3cccnc3)cc2)c1 [N-ethyl-3-({4-[(2E)-3-(pyridin-3-yl)prop-2-enamido]benzene}sulfonyl)benzamide],100 to 1000,7.3
CCNC(=O)c1ccc(S(=O)(=O)c2ccc(NC(=O)/C=C/c3cccnc3)cc2)cc1 [N-ethyl-4-({4-[(2E)-3-(pyridin-3-yl)prop-2-enamido]benzene}sulfonyl)benzamide],100 to 1000,14.7
